This note sets out measurements from US20230242585A1, “IMMUNOMODULATORS” (Bristol-Myers Squibb Company, priority 2020, published 2023).

Starred links: 1 amine or outer side, 2 acyl side, 3 side chain; linkers in the order of their positions; H or OH if unused. Positions of bridges follow the written chain, without caps; N, C: chain ends. Non-standard residues stand in square brackets, D forms with d. Residues, ends and D or L forms follow the SMILES beside them. X54 = O=C([C@H](CCNC[C@@H](O)C(O)[C@H](O[C@@H]1OC(CO)[C@@H](O)C(O)C1O)C(O)CO)N[*:1])[*:2]; X42 = O=C([C@H](CNC[C@@H](O)C(O)[C@H](O[C@@H]1OC(CO)[C@@H](O)C(O)C1O)C(O)CO)N[*:1])[*:2]; X51 = O=C([C@H](CCNC[C@@H](O)[C@@H](O)[C@H](O)[C@H](O)C(O)CO)N[*:1])[*:2]; X50 = O=C([C@H](CNC[C@@H](O)[C@@H](O)[C@H](O)[C@H](O)C(O)CO)N[*:1])[*:2]; X26 = O=C([C@H](CCNC[C@H](O)[C@H](O)[C@H](O)CO)N[*:1])[*:2]; X6 = O=C([C@H](CCNC[C@H](O)[C@@H](O)[C@H](O)CO)N[*:1])[*:2]; X5 = O=C([C@H](CNC[C@H](O)[C@@H](O)[C@H](O)CO)N[*:1])[*:2]; X7 = O=C([C@H](CNC[C@H](O)[C@H](O)[C@H](O)CO)N[*:1])[*:2]; Trp(1-CH2COOH) = N[C@@H](Cc1cn(CC(=O)O)c2ccccc12)C(=O)O; X14 = O=C([C@H](CCNCc1cccc2[nH]ccc12)N[*:1])[*:2]; X13 = O=C([C@H](CNCc1cccc2[nH]ccc12)N[*:1])[*:2]; Hyp = O=C(O)[C@@H]1C[C@@H](O)CN1; NMeNle = CCCC[C@H](NC)C(=O)O; NMeA = CN[C@@H](C)C(=O)O; Dab = NCC[C@H](N)C(=O)O

For this test, the target named is T1, PD-1/PD-L1 (Homo sapiens, UniProt Q9NZQ7).
T1 construct: TVMV protease site (linker) (C); made in house; host or cells: HEK293T cells
T1 sequence (Q9NZQ7 18-239): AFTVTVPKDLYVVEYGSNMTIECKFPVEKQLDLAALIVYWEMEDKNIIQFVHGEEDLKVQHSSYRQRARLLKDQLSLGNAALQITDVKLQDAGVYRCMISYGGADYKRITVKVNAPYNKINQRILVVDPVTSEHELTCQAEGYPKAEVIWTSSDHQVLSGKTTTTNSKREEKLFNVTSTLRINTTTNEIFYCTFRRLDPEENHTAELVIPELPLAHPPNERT
Briefly: PD-1/PD-L1 Homogenous Time-Resolved Fluorescence (HTRF) binding assay. Particulars: PD-L1-His 10 nM, PD-1-Ig 20 nM. The source says: The ability of the compounds of formula (I) to bind to PD-L1 was investigated using a PD-1/PD-L1 Homogenous Time-Resolved Fluorescence (HTRF) binding assay.
The interaction of PD-1 and PD-L1 can be assessed using soluble, purified preparations of the extracellular domains of the two proteins. The PD-1 and PD-L1 protein extracellular domains were expressed as fusion proteins with detection tags, for PD-1, the tag was the Fc portion of Immunoglobulin (PD-1-Ig) and for PD-L1 it was the 6 histidine motif (PD-L1-His). All binding studies were performed in an HTRF assay buffer consisting of dPBS supplemented with 0.1% […] bovine serum albumin and 0.05% (v/v) Tween-20. For the h/PD-L1-His binding assay, inhibitors were pre-incubated with PD-L1-His (10 nM final) for 15 m in 4 µl of assay buffer, followed by addition of PD-1-Ig (20 nM final) in 1 µl of assay buffer and further incubation for 15 m. HTRF detection was achieved using europium crypate-labeled anti-Ig (1 nM final) and allophycocyanin (APC) labeled anti-His (20 nM final). Antibodies were diluted in HTRF detection buffer and 5 µl was dispensed on top of the binding reaction. The reaction mixture was allowed to equilibrate for 30 minutes and the resulting signal (665 nm/620 nm ratio) was obtained using an EnVision fluorometer. Additional binding assays were established between the human proteins PD-1-Ig/PD-L2-His (20 & 5 nM, respectively) and CD80-His/PD-L1-Ig (100 & 10 nM, respectively).
Recombinant Proteins: Human PD-1 (25-167) with a C-terminal human Fc domain of immunoglobulin G (Ig) epitope tag [hPD-1 (25-167)-3S-IG] and human PD-L1 (18-239) with a C-terminal His epitope tag [hPD-L1(18-239)-TVMV-His] were expressed in HEK293T cells and purified sequentially by ProteinA affinity chromatography and size exclusion chromatography. Human PD-L2-His and CD80-His was obtained through commercial sources.
Table 1 lists the IC50 values for representative examples of this disclosure measured in the PD-1/PD-L1 Homogenous Time-Resolved Fluorescence (HTRF) binding assay.
Molecule `CCCC[C@H]1C(=O)N(C)[C@@H](CCCC)C(=O)N[C@@H](CC(C)C)C(=O)N[C@H](C(=O)NCC(N)=O)CSCC(=O)N[C@@H](Cc2ccc(O)cc2)C(=O)N(C)[C@@H](C)C(=O)N[C@@H](CC(N)=O)C(=O)N2CCC[C@H]2C(=O)N[C@@H](CNC[C@@H](O)C(O)[C@H](O[C@@H]2OC(CO)[C@@H](O)C(O)C2O)C(O)CO)C(=O)N[C@@H](CC(C)C)C(=O)N2C[C@H](O)C[C@H]2C(=O)N[C@@H](Cc2c[nH]c3ccccc23)C(=O)N[C@@H](CCNC[C@@H](O)C(O)[C@H](O[C@@H]2OC(CO)[C@@H](O)C(O)C2O)C(O)CO)C(=O)N[C@@H](Cc2cn(CC(=O)O)c3ccccc23)C(=O)N1C` (stereo partly drawn) [Example 2040] ({CH2CO}-Y[NMeA]NP[X42]L[Hyp]W[X54][Trp(1-CH2COOH)][NMeNle][NMeNle]LCG-NH2; thioether N-14) registered an IC50 of 6.3 nM.

As to `CCCC[C@H]1C(=O)N(C)[C@@H](CCCC)C(=O)N[C@@H](CC(C)C)C(=O)N[C@H](C(=O)NCC(N)=O)CSCC(=O)N[C@@H](Cc2ccc(O)cc2)C(=O)N(C)[C@@H](C)C(=O)N[C@@H](CC(N)=O)C(=O)N2CCC[C@H]2C(=O)N[C@@H](CNC[C@H](O)[C@H](O)[C@H](O)CO)C(=O)N[C@@H](CC(C)C)C(=O)N2C[C@H](O)C[C@H]2C(=O)N[C@@H](Cc2c[nH]c3ccccc23)C(=O)N[C@@H](CCNC[C@H](O)[C@H](O)[C@H](O)CO)C(=O)N[C@@H](Cc2cn(CC(=O)O)c3ccccc23)C(=O)N1C` [Example 2003] ({CH2CO}-Y[NMeA]NP[X7]L[Hyp]W[X26][Trp(1-CH2COOH)][NMeNle][NMeNle]LCG-NH2; thioether N-14), the IC50 came to 9.9 nM.

With `CCCC[C@H]1C(=O)N(C)[C@@H](CCCC)C(=O)N[C@@H](CC(C)C)C(=O)N[C@H](C(=O)NCC(N)=O)CSCC(=O)N[C@@H](Cc2ccc(O)cc2)C(=O)N(C)[C@@H](C)C(=O)N[C@@H](CC(N)=O)C(=O)N2CCC[C@H]2C(=O)N[C@@H](CNC[C@H](O)[C@H](O)[C@H](O)CO)C(=O)N[C@@H](CC(C)C)C(=O)N2C[C@H](O)C[C@H]2C(=O)N[C@@H](Cc2c[nH]c3ccccc23)C(=O)N[C@@H](CCN)C(=O)N[C@@H](Cc2cn(CC(=O)O)c3ccccc23)C(=O)N1C` [Example 2006] ({CH2CO}-Y[NMeA]NP[X7]L[Hyp]W[Dab][Trp(1-CH2COOH)][NMeNle][NMeNle]LCG-NH2; thioether N-14), the IC50 stood at 12 nM. The IC50 values of the last two molecules are within 1.5-fold of each other.

With `CCCC[C@H]1C(=O)N(C)[C@@H](CCCC)C(=O)N[C@@H](CC(C)C)C(=O)N[C@H](C(=O)NCC(N)=O)CSCC(=O)N[C@@H](Cc2ccc(O)cc2)C(=O)N(C)[C@@H](C)C(=O)N[C@@H](CC(N)=O)C(=O)N2CCC[C@H]2C(=O)N[C@@H](CNC[C@H](O)[C@@H](O)[C@H](O)CO)C(=O)N[C@@H](CC(C)C)C(=O)N2C[C@H](O)C[C@H]2C(=O)N[C@@H](Cc2c[nH]c3ccccc23)C(=O)N[C@@H](CCNC[C@H](O)[C@@H](O)[C@H](O)CO)C(=O)N[C@@H](Cc2cn(CC(=O)O)c3ccccc23)C(=O)N1C` [Example 2014] ({CH2CO}-Y[NMeA]NP[X5]L[Hyp]W[X6][Trp(1-CH2COOH)][NMeNle][NMeNle]LCG-NH2; thioether N-14), the IC50 is 2.5 nM. This IC50 lies about 4.8-fold lower than the previous one.

For `CCCC[C@H]1C(=O)N(C)[C@@H](CCCC)C(=O)N[C@@H](CC(C)C)C(=O)N[C@H](C(=O)NCC(N)=O)CSCC(=O)N[C@@H](Cc2ccc(O)cc2)C(=O)N(C)[C@@H](C)C(=O)N[C@@H](CC(N)=O)C(=O)N2CCC[C@H]2C(=O)N[C@@H](CNC[C@@H](O)[C@@H](O)[C@H](O)[C@H](O)C(O)CO)C(=O)N[C@@H](CC(C)C)C(=O)N2C[C@H](O)C[C@H]2C(=O)N[C@@H](Cc2c[nH]c3ccccc23)C(=O)N[C@@H](CCNC[C@@H](O)[C@@H](O)[C@H](O)[C@H](O)C(O)CO)C(=O)N[C@@H](Cc2cn(CC(=O)O)c3ccccc23)C(=O)N1C` (stereo partly drawn) [Example 2021] ({CH2CO}-Y[NMeA]NP[X50]L[Hyp]W[X51][Trp(1-CH2COOH)][NMeNle][NMeNle]LCG-NH2; thioether N-14), the IC50 turned out to be 8.9 nM.

In turn, `CCCC[C@H]1C(=O)N(C)[C@@H](CCCC)C(=O)N[C@@H](CC(C)C)C(=O)N[C@H](C(=O)NCC(N)=O)CSCC(=O)N[C@@H](Cc2ccc(O)cc2)C(=O)N(C)[C@@H](C)C(=O)N[C@@H](CC(N)=O)C(=O)N2CCC[C@H]2C(=O)N[C@@H](CNCc2cccc3[nH]ccc23)C(=O)N[C@@H](CC(C)C)C(=O)N2C[C@H](O)C[C@H]2C(=O)N[C@@H](Cc2c[nH]c3ccccc23)C(=O)N[C@@H](CCNCc2cccc3[nH]ccc23)C(=O)N[C@@H](Cc2cn(CC(=O)O)c3ccccc23)C(=O)N1C` [Example 1008] ({CH2CO}-Y[NMeA]NP[X13]L[Hyp]W[X14][Trp(1-CH2COOH)][NMeNle][NMeNle]LCG-NH2; thioether N-14) returned an IC50 of 4.9 nM.
